Assay results: ChEMBL document CHEMBL3885861, “Open TG-GATES”

Species on record: Rattus norvegicus
Assay: Open TG-GATES - Regimen: Single
Format: toxicity, organism-based, Sprague-Dawley
Set-up: regimen Single, gender Male, age 6 weeks
Conditions: in vivo, po, 30 mg/kg, route gavage, dose level Low; for APTT / Bas / Eos / Fbg / Hb / Ht / Lym / MCH / MCHC / MCV / Mono / Neu / PT / Plat / RBC / Ret / WBC: tissue Blood; for KIDNEY_L / KIDNEY_R / KIDNEY_TOTAL: tissue Kidney; for LIVER: tissue Liver; for A/G / ALP / ALT / AST / BUN / CRE / Ca / Cl / DBIL / GLC / IP / K / LDH / Na / PL / RALB / TBIL / TC / TG / TP / gamma-GTP: tissue Plasma

In the case of `Brc1ccccc1` [BROMOBENZENE], the TERMINAL_BW (3 h) is reported as 190.8 g, the APTT (3 h) is reported as 14.7 s and the Bas (3 h) is reported as 0%. For the same compound, the Eos (3 h) was 0.8%, the Fbg (3 h) was 276.2 mg/dL and the Hb (3 h) was 12.9 g/dL. For the same compound, the Ht (3 h) was 38.6%, the Lym (3 h) was 77% and the MCH (3 h) was 21.7 pg. For the same compound, the MCHC (3 h) was 33.6%, the MCV (3 h) was 64.5 fL and the Mono (3 h) was 3%. It also gave a Neu (3 h) of 18.4%, a PT (3 h) of 12.3 s and a Plat (3 h) of 116 x10_4/uL. It also gave an RBC (3 h) of 597.6 x10_4/ul, a Ret (3 h) of 9.5% and a WBC (3 h) of 95.3 x10_2/uL. The KIDNEY_L (3 h) was 0.8 g, the KIDNEY_R (3 h) was 0.8 g and the KIDNEY_TOTAL (3 h) was 1.6 g. For the same compound, the LIVER (3 h) was 7.9 g, the A/G (3 h) was 0.9 and the ALP (3 h) was 1807.2 IU/L. The ALT (3 h) was 47.6 IU/L, the AST (3 h) was 80 IU/L and the BUN (3 h) was 11 mg/dL. It also gave a CRE (3 h) of 0.2 mg/dL, a Ca (3 h) of 11.4 mg/dL and a Cl (3 h) of 106.2 meq/L. For the same compound, the DBIL (3 h) was 0.024 mg/dL, the GLC (3 h) was 182 mg/dL and the IP (3 h) was 9.4 mg/dL. The K (3 h) was 4 meq/L, the LDH (3 h) was 75.6 IU/L and the Na (3 h) was 141.6 meq/L. For the same compound, the PL (3 h) was 174.2 mg/dL, the RALB (3 h) was 2.6 g/dL and the TBIL (3 h) was 0.056 mg/dL. It also gave a TC (3 h) of 93.6 mg/dL, a TG (3 h) of 80.6 mg/dL and a TP (3 h) of 5.7 g/dL. For the same compound, the gamma-GTP (3 h) was 1.2 IU/L, the TERMINAL_BW (6 h) was 192.5 g and the APTT (6 h) was 15.9 s. For the same compound, the Bas (6 h) was 0%, the Eos (6 h) was 1% and the Fbg (6 h) was 250 mg/dL. The Hb (6 h) was 12.8 g/dL, the Ht (6 h) was 38.3% and the Lym (6 h) was 78.6%. For the same compound, the MCH (6 h) was 21.7 pg, the MCHC (6 h) was 33.3% and the MCV (6 h) was 65 fL. The Mono (6 h) was 3.4%, the Neu (6 h) was 16.6% and the PT (6 h) was 12.6 s. The Plat (6 h) was 110.6 x10_4/uL, the RBC (6 h) was 590.4 x10_4/ul and the Ret (6 h) was 9.4%. The WBC (6 h) was 105.9 x10_2/uL, the KIDNEY_L (6 h) was 0.8 g and the KIDNEY_R (6 h) was 0.8 g. For the same compound, the KIDNEY_TOTAL (6 h) was 1.6 g, the LIVER (6 h) was 7.4 g and the A/G (6 h) was 0.9. It also gave an ALP (6 h) of 1769.6 IU/L, an ALT (6 h) of 41 IU/L and an AST (6 h) of 75.8 IU/L. It also gave a BUN (6 h) of 10.6 mg/dL, a CRE (6 h) of 0.2 mg/dL and a Ca (6 h) of 11.1 mg/dL. It also gave a Cl (6 h) of 107.2 meq/L, a DBIL (6 h) of 0.018 mg/dL and a GLC (6 h) of 180.8 mg/dL. The IP (6 h) was 10.3 mg/dL, the K (6 h) was 3.9 meq/L and the LDH (6 h) was 71.2 IU/L. For the same compound, the Na (6 h) was 141.8 meq/L, the PL (6 h) was 139.2 mg/dL and the RALB (6 h) was 2.5 g/dL. For the same compound, the TBIL (6 h) was 0.058 mg/dL, the TC (6 h) was 74.6 mg/dL and the TG (6 h) was 53 mg/dL. For the same compound, the TP (6 h) was 5.3 g/dL, the gamma-GTP (6 h) was 1.4 IU/L and the TERMINAL_BW (9 h) was 193.2 g. The APTT (9 h) was 15.6 s, the Bas (9 h) was 0% and the Eos (9 h) was 1%. The Fbg (9 h) was 262.2 mg/dL, the Hb (9 h) was 13.3 g/dL and the Ht (9 h) was 39.4%. It also gave a Lym (9 h) of 70.8%, an MCH (9 h) of 21.5 pg and an MCHC (9 h) of 33.7%. The MCV (9 h) was 64 fL, the Mono (9 h) was 3.2% and the Neu (9 h) was 24.6%. The PT (9 h) was 12.7 s, the Plat (9 h) was 118.3 x10_4/uL and the RBC (9 h) was 617.2 x10_4/ul. For the same compound, the Ret (9 h) was 9%, the WBC (9 h) was 92.1 x10_2/uL and the KIDNEY_L (9 h) was 0.8 g. For the same compound, the KIDNEY_R (9 h) was 0.8 g, the KIDNEY_TOTAL (9 h) was 1.6 g and the LIVER (9 h) was 7 g. It also gave an A/G (9 h) of 0.9, an ALP (9 h) of 1907.6 IU/L and an ALT (9 h) of 41.2 IU/L. For the same compound, the AST (9 h) was 73.4 IU/L, the BUN (9 h) was 10.2 mg/dL and the CRE (9 h) was 0.1 mg/dL. The Ca (9 h) was 10.7 mg/dL, the Cl (9 h) was 106.2 meq/L and the DBIL (9 h) was 0.016 mg/dL. The GLC (9 h) was 189.6 mg/dL, the IP (9 h) was 11.5 mg/dL and the K (9 h) was 3.9 meq/L. The LDH (9 h) was 72.8 IU/L, the Na (9 h) was 142.2 meq/L and the PL (9 h) was 136.8 mg/dL. For the same compound, the RALB (9 h) was 2.5 g/dL, the TBIL (9 h) was 0.058 mg/dL and the TC (9 h) was 79.6 mg/dL. For the same compound, the TG (9 h) was 41.6 mg/dL, the TP (9 h) was 5.3 g/dL and the gamma-GTP (9 h) was 1.6 IU/L. For the same compound, the TERMINAL_BW (24 h) was 199 g, the APTT (24 h) was 15.2 s and the Bas (24 h) was 0%. The Eos (24 h) was 1.2%, the Fbg (24 h) was 248.6 mg/dL and the Hb (24 h) was 12.7 g/dL. For the same compound, the Ht (24 h) was 37.2%, the Lym (24 h) was 71.6% and the MCH (24 h) was 21.4 pg. The MCHC (24 h) was 34%, the MCV (24 h) was 63.1 fL and the Mono (24 h) was 3.4%. For the same compound, the Neu (24 h) was 23.6%, the PT (24 h) was 12.3 s and the Plat (24 h) was 117.9 x10_4/uL. It also gave an RBC (24 h) of 589.2 x10_4/ul, a Ret (24 h) of 8.2% and a WBC (24 h) of 96.4 x10_2/uL. The KIDNEY_L (24 h) was 0.8 g, the KIDNEY_R (24 h) was 0.8 g and the KIDNEY_TOTAL (24 h) was 1.7 g. It also gave an LIVER (24 h) of 9.2 g, an A/G (24 h) of 0.9 and an ALP (24 h) of 1811.4 IU/L. The ALT (24 h) was 52.8 IU/L, the AST (24 h) was 78.8 IU/L and the BUN (24 h) was 15.4 mg/dL. For the same compound, the CRE (24 h) was 0.2 mg/dL, the Ca (24 h) was 10.4 mg/dL and the Cl (24 h) was 106.2 meq/L. The DBIL (24 h) was 0.012 mg/dL, the GLC (24 h) was 196.8 mg/dL and the IP (24 h) was 8.1 mg/dL. The K (24 h) was 4.2 meq/L, the LDH (24 h) was 112.6 IU/L and the Na (24 h) was 141.6 meq/L. It also gave a PL (24 h) of 137.4 mg/dL, an RALB (24 h) of 2.5 g/dL and a TBIL (24 h) of 0.05 mg/dL. The TC (24 h) was 71.8 mg/dL, the TG (24 h) was 79.4 mg/dL and the TP (24 h) was 5.4 g/dL. It also gave a gamma-GTP (24 h) of 0.8 IU/L.
